# Active and inactive are the calls of the source. No cut-off for these calls is given here.
# Legend:
# Assay type in all cases: functional, organism-based
# Arabidopsis thaliana [1] = assay: Growth inhibition of Arabidopsis thaliana ecotype Ra-0 assessed as inhibition of germination
# Arabidopsis thaliana [2] = assay: Growth inhibition of Arabidopsis thaliana ecotype Columbia assessed as inhibition of germination at 100 uM
# Arabidopsis thaliana [3] = assay: Growth inhibition of Arabidopsis thaliana ecotype Columbia assessed as inhibition of germination
# Arabidopsis thaliana [4] = assay: Growth inhibition of Arabidopsis thaliana ecotype CSH-1 assessed as inhibition of germination
# Arabidopsis thaliana [5] = assay: Growth inhibition of Arabidopsis thaliana ecotype Rld-2 assessed as decrease in hypocotyl length
# Arabidopsis thaliana [6] = assay: Growth inhibition of Arabidopsis thaliana ecotype LIN assessed as inhibition of germination
# Arabidopsis thaliana [7] = assay: Growth inhibition of Arabidopsis thaliana ecotype Ull2-3 assessed as inhibition of germination
# Arabidopsis thaliana [8] = assay: Growth inhibition of Arabidopsis thaliana ecotype Kyoto assessed as inhibition of germination
# Arabidopsis thaliana [9] = assay: Growth inhibition of Arabidopsis thaliana ecotype Co assessed as inhibition of germination
# Arabidopsis thaliana [10] = assay: Growth inhibition of Arabidopsis thaliana ecotype Pog-0 assessed as inhibition of germination
# Arabidopsis thaliana [11] = assay: Growth inhibition of Arabidopsis thaliana ecotype Br-0 assessed as inhibition of germination
# Arabidopsis thaliana [12] = assay: Growth inhibition of Arabidopsis thaliana ecotype Columbia assessed as decrease in root length
# Arabidopsis thaliana [13] = assay: Growth inhibition of Arabidopsis thaliana ecotype RRS7 assessed as decrease in root length
# Arabidopsis thaliana [14] = assay: Growth inhibition of Arabidopsis thaliana ecotype KZ1 assessed as inhibition of germination
compound,measurement,setting,value
CC1CCC(C(C)C)C(=O)/C1=C\c1ccc(N)cc1 (stereo not drawn),IC50,Arabidopsis thaliana [1],7 µM
same,growth inhibition (GI),Arabidopsis thaliana [2],inactive
CCOc1ccc(S(=O)(=O)NCc2ccccn2)c2ccccc12 [PYRABACTIN B],IC50,Arabidopsis thaliana [3],8.4 µM
same,IC50,Arabidopsis thaliana [4],2.5 µM
CCOC(=O)N1CCN(c2cc(C)c3ccc(Cl)cc3n2)CC1 [POLARAZINE],IC50,Arabidopsis thaliana [5],13 µM
O=C(c1ccccc1Cl)c1coc2ccccc2c1=O,IC50,Arabidopsis thaliana [6],≤ 14 µM
OC(c1ccccc1)(c1ccccc1)c1c[nH]cn1,IC50,Arabidopsis thaliana [7],17 µM
same,growth inhibition (GI),Arabidopsis thaliana [2],inactive
CCN(CC)c1ccc(C(=O)c2ccccc2C(=O)O)c(O)c1,IC50,Arabidopsis thaliana [8],12.5 µM
same,growth inhibition (GI),Arabidopsis thaliana [2],inactive
CCc1ccc(CN2CCCCC2c2cccnc2)cc1 (stereo not drawn),IC50,Arabidopsis thaliana [9],10 µM
same,growth inhibition (GI),Arabidopsis thaliana [2],inactive
COc1ccc2occ(C(=O)c3ccccc3Cl)c(=O)c2c1,IC50,Arabidopsis thaliana [10],3 µM
O=[N+]([O-])c1ccc(CN2CCCCC2c2cccnc2)cc1 (stereo not drawn),growth inhibition (GI),Arabidopsis thaliana [2],inactive
same,IC50,Arabidopsis thaliana [11],3 µM
Cc1ccc(C(C)C)c(OCC(=O)N/N=C/c2cccnc2)c1 [CHUBOXYPYR],IC50,Arabidopsis thaliana [12],80 µM
same,IC50,Arabidopsis thaliana [13],22 µM
O=S(=O)(NCc1ccccn1)c1ccc(Br)c2ccccc12 [PYRABACTIN A],IC50,Arabidopsis thaliana [14],2.2 µM
